The assay has as its target T1, recombinant guanylate cyclase reporter cell line (Rattus norvegicus, UniProt P19686+P20595).
T1 construct: expressed in transfected cells
T1 sequence (P19686 1-690): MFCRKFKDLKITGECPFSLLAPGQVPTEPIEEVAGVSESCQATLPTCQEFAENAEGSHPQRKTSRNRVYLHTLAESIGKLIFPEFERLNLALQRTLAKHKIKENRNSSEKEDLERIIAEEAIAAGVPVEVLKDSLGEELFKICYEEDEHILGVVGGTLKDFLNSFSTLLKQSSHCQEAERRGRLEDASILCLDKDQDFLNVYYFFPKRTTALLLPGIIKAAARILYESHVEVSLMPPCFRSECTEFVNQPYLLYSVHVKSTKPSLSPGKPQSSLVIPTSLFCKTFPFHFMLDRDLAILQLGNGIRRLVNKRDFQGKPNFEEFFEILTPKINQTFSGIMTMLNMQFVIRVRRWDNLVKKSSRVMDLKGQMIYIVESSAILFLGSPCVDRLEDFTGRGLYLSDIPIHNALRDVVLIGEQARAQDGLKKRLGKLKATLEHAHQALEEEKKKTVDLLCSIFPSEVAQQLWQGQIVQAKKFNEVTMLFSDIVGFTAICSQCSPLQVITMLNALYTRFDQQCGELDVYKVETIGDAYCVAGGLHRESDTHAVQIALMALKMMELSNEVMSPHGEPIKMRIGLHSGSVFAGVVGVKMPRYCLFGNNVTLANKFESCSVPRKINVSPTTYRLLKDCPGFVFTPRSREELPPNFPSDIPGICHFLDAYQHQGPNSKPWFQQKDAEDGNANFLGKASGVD
T1 sequence (P20595 1-619): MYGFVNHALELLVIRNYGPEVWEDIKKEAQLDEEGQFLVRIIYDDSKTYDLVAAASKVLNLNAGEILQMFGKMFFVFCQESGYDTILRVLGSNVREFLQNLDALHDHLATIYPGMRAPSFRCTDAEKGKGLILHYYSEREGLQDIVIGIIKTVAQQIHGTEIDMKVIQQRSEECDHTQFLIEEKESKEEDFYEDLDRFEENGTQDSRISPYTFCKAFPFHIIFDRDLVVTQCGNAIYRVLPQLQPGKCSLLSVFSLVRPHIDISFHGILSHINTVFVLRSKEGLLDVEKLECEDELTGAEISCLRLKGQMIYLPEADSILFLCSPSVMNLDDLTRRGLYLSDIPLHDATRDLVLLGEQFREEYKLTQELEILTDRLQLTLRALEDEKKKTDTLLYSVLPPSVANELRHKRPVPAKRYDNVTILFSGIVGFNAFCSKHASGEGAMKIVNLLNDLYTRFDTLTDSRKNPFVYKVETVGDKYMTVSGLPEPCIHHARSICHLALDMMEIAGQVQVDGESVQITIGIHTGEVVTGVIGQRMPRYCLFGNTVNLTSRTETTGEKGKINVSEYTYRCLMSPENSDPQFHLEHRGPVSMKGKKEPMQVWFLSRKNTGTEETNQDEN
In words: Effect on a recombinant guanylate cyclase reporter cell line. Format: cell-based. As to conditions: MEC = minimum effective concentration; in some cases mean values for individual determinations. How it is done: B-2. Effect on a Recombinant Guanylate Cyclase Reporter Cell Line
The cellular action of the compounds of the invention is determined using a recombinant guanylate cyclase reporter cell line, as described in F. Wunder et al., Anal. Biochem. 339, 104-112 (2005).
Representative MEC values (MEC=minimum effective concentration) for the compounds of the invention are shown in the table below (in some cases as mean values for individual determinations): […]

As for “8-[(2,6-difluorobenzyl)oxy]-N-[1-(2- hydroxyethyl)-5-methyl-3-(trifluoromethyl)-1H- pyrazol-4-yl]-2,6-dimethylimidazo[1,2-a]pyridine- 3-carboxamide [Example 118]”, the MEC came to 0.1 µM.
To `Cc1nc2c(OCc3c(F)cccc3F)cccn2c1C(=O)Nc1cnn(CCN2CCC(O)C2)c1` (racemic) [Example 131, rac-8-[(2,6-difluorobenzyl)oxy]-N-{1-[2-(3-hydroxypyrrolidin-1-yl)ethyl]-1H-pyrazol-4-yl}-2-methylimidazol[1,2-a] pyridine-3-carboxamide] belongs 10 µM; to `Cc1nc2c(OCc3c(F)cccc3F)cccn2c1C(=O)Nc1cnn2ccccc12` [Example 1, 8-[(2,6-Difluorobenzyl)oxy]-2-methyl-N-(pyrazolo[1,5-a]pyridin-3-yl)imidazo[1,2-a]pyridine-3-carboxamide], 0.1 µM.
To `Cc1nc2c(OCc3c(F)cccc3F)cccn2c1C(=O)Nc1c[nH]c2ccccc12` [Example 2] belongs 0.1 µM; to `Cc1n[nH]cc1NC(=O)c1c(C)nc2c(OCc3c(F)cccc3F)cccn12` [Example 3], 0.3 µM.
For the compound `Cc1nn(C)cc1NC(=O)c1c(C)nc2c(OCc3c(F)cccc3F)cccn12` [Example 4], the MEC came out at 0.3 µM.
To `Cc1cccc(NC(=O)c2c(C)nc3c(OCc4c(F)cccc4F)cccn23)n1` [Example 5] belongs 0.3 µM.
To `Cc1nc2c(OCc3c(F)cccc3F)cccn2c1C(=O)Nc1ccc2c(c1)OCC(=O)N2` [Example 6] belongs 0.1 µM; to `CCc1cc(NC(=O)c2c(C)nc3c(OCc4c(F)cccc4F)cccn23)ccn1` [Example 8], 0.1 µM.
To `Cc1ccc(F)c(NC(=O)c2c(C)nc3c(OCc4c(F)cccc4F)cccn23)c1` [Example 9] belongs 0.3 µM; to `Cc1nc2c(OCc3c(F)cccc3F)cccn2c1C(=O)Nc1ccccc1F` [Example 10], 0.3 µM; to `Cc1nc2c(OCc3c(F)cccc3F)cccn2c1C(=O)Nc1ccccc1` [Example 11], 0.3 µM.
Regarding `Cc1cccc(NC(=O)c2c(C)nc3c(OCc4c(F)cccc4F)cccn23)c1C` [Example 12], the MEC was 0.3 µM.
To `COc1cccc(NC(=O)c2c(C)nc3c(OCc4c(F)cccc4F)cccn23)c1` [Example 13] belongs 0.3 µM; to `Cc1nc2c(OCc3c(F)cccc3F)cccn2c1C(=O)Nc1cccc(Cl)c1C` [Example 14], 0.3 µM.
To `COc1cccc(C)c1NC(=O)c1c(C)nc2c(OCc3c(F)cccc3F)cccn12` [Example 15] belongs 0.3 µM.
To `COc1ccc(C)c(NC(=O)c2c(C)nc3c(OCc4c(F)cccc4F)cccn23)c1` [Example 16] belongs 0.3 µM.
On to `Cc1nc2c(OCc3c(F)cccc3F)cccn2c1C(=O)Nc1cccc(C(C)O)c1` (stereo not drawn) [Example 17], for which the MEC is 0.3 µM.
To `CC(=O)Nc1ccc(NC(=O)c2c(C)nc3c(OCc4c(F)cccc4F)cccn23)cc1C(F)(F)F` [Example 18] belongs 0.3 µM.
To `Cc1nc2c(OCc3c(F)cccc3F)cccn2c1C(=O)Nc1cc[nH]n1` [Example 19] belongs 3.0 µM; to `CCn1nccc1NC(=O)c1c(C)nc2c(OCc3c(F)cccc3F)cccn12` [Example 20], 1.0 µM.
To `Cc1nc2c(OCc3c(F)cccc3F)cccn2c1C(=O)Nc1ccnn1C(C)C` [Example 21] belongs 1.0 µM; to `Cc1nc2c(OCc3c(F)cccc3F)cccn2c1C(=O)Nc1cnn(CCO)c1` [Example 22, 8-[(2,6-Difluorobenzyl)oxy]-N-[1-(2-hydroxyethyl)-1H-pyrazol-4-yl]-2-methylimidazo[1,2-a]pyridine-3-carboxamide], 1.43 µM.
`Cc1noc(C)c1NC(=O)c1c(C)nc2c(OCc3c(F)cccc3F)cccn12` [Example 23, 8-[(2,6-difluorobenzyl)oxy]-N-(3,5-dimethyl-1,2-oxazol-4-yl)-2-methylimidazo[1,2-a]pyridine-3-carboxamide]: the MEC came out at 0.65 µM.
Next, `Cc1nc2c(OCc3c(F)cccc3F)cccn2c1C(=O)Nc1cnn(CC(N)=O)c1` [Example 25, N-[1-(2-amino-2-oxoethyl)-1H-pyrazol-4-yl]-8-[(2,6-difluorobenzyl)oxy]-2-methylimidazo[1,2-a]pyridine-3-carboxamide]: 3.0 µM; `COCCn1cc(NC(=O)c2c(C)nc3c(OCc4c(F)cccc4F)cccn23)cn1` [Example 26, 8-[(2,6-difluorobenzyl)oxy]-N-[1-(2-methoxyethyl)-1H-pyrazol-4-yl]-2-methylimidazo[1,2-a]pyridine-3-carboxamide]: 1.0 µM; `Cc1nc2c(OCc3c(F)cccc3F)cccn2c1C(=O)Nc1cnn(C(C)C)c1` [Example 27, 8-[(2,6-difluorobenzyl)oxy]-N-(1-isopropyl-1H-pyrazol-4-yl)-2-methylimidazo[1,2-a]pyridine-3-carboxamide]: 0.3 µM.
Next, `Cc1n[nH]c(C)c1NC(=O)c1c(C)nc2c(OCc3c(F)cccc3F)cccn12` [Example 29, 8-[(2,6-difluorobenzyl)oxy]-N-(3,5-dimethyl-1H-pyrazol-4-yl)-2-methylimidazo[1,2-a]pyridine-3-carboxamide]: 0.53 µM; `Cc1nc2c(OCc3c(F)cccc3F)cccn2c1C(=O)Nc1cnn(CC(F)(F)F)c1` [Example 30, 8-[(2,6-difluorobenzyl)oxy]-2-methyl-N-[1-(2,2,2-trifluoroethyl)-1H-pyrazol-4-yl]imidazo[1,2-a]pyridine-3-carboxamide]: 0.3 µM.
Next, `Cc1nc2c(OCc3c(F)cccc3F)cccn2c1C(=O)Nc1cn[nH]c1` [Example 31, 8-[(2,6-difluorobenzyl)oxy]-2-methyl-N-(1H-pyrazol-4-yl)imidazo[1,2-a]pyridine-3-carboxamide]: 1.0 µM.
On to `Cc1nn(CC(F)(F)F)c(C)c1NC(=O)c1c(C)nc2c(OCc3c(F)cccc3F)cccn12` [Example 32, 8-[(2,6-difluorobenzyl)oxy]-N-[3,5-dimethyl-1-(2,2,2-trifluoroethyl)-1H-pyrazol-4-yl]-2-methylimidazo[1,2-a]pyridine-3-carboxamide], for which the MEC was 1.0 µM.
Consider `Cc1nn(CC(F)(F)F)cc1NC(=O)c1c(C)nc2c(OCc3c(F)cccc3F)cccn12` [Example 33, 8-[(2,6-difluorobenzyl)oxy]-2-methyl-N-[3-methyl-1-(2,2,2-trifluoroethyl)-1H-pyrazol-4-yl]imidazo[1,2-a]pyridine-3-carboxamide], for which the MEC amounted to 1.0 µM.
As to `Cc1nn(C)c(N2CCOCC2)c1NC(=O)c1c(C)nc2c(OCc3c(F)cccc3F)cccn12` [Example 34, 8-[(2,6-difluorobenzyl)oxy]-N-[1,3-dimethyl-5-(morpholin-4-yl)-1H-pyrazol-4-yl]-2-methylimidazo[1,2-a]pyridine-3-carboxamide], the MEC came out at 1.0 µM.
To `Cc1nc2c(OCc3c(F)cccc3F)cccn2c1C(=O)Nc1cnn(Cc2cccc(F)c2)c1` [Example 35, 8-[(2,6-difluorobenzyl)oxy]-N-[1-(3-fluorobenzyl)-1H-pyrazol-4-yl]-2-methylimidazo[1,2-a]pyridine-3-carboxamide] belongs 3.0 µM.
To `CNC(=O)c1c(NC(=O)c2c(C)nc3c(OCc4c(F)cccc4F)cccn23)cnn1C` [Example 36, 8-[(2,6-difluorobenzyl)oxy]-2-methyl-N-[1-methyl-5-(methylcarbamoyl)-1H-pyrazol-4-yl]imidazo[1,2-a]pyridine-3-carboxamide] belongs 1.0 µM.
Next, `Cc1nn(CCO)c(C)c1NC(=O)c1c(C)nc2c(OCc3c(F)cccc3F)cccn12` [Example 37, 8-[(2,6-difluorobenzyl)oxy]-N-[1-(2-hydroxyethyl)-3,5-dimethyl-1H-pyrazol-4-yl]-2-methylimidazo[1,2-a]pyridine-3-carboxamide]: 0.3 µM.

The values above are taken from patent US20160362408A1 (Bayer Pharma Aktiengesellschaft, priority 2013, published 2016).
